From patent US12603148B2, “Method for analysis of omics data” (Max-Delbrück-Centrum für Molekulare Medizin in der …, priority 2021, dated 2026)

System: patient derived xenografts (PDX) from localized breast cancer tumors
Experiment: Drug response of breast cancer patient derived xenografts (complete vs non/incomplete response)
Format: in vivo
Details: breast cancer PDX library; AC tested on 37 PDXs, Olaparib on 33 PDXs
Method: A library of 37 patient derived xenografts (PDX) from localized breast cancer tumors were assayed using RNA-seq to determine gene expression profiles and Exome-seq to detect somatic mutations. AC (a combination of the chemotherapies Adriamycin (doxorubicin) and cyclophosphamide) was tested on the 37 PDXs, and 33 were also treated using Olaparib (a PARP inhibitor). The responses of the PDX to the treatments are categorized into Complete Response and non/incomplete response. […] Thus, the complete response to Olaparib results in 28 False and 5 True samples. The complete response to AC results in 26 False and 11 True samples.

SMILES: O=C(c1cc(Cc2n[nH]c(=O)c3ccccc23)ccc1F)N1CCN(C(=O)C2CC2)CC1 [Olaparib]
- samples showing a complete response: 5 samples
- samples showing non- or partial responses: 28 samples
